Test results as given in patent US11214772B2, “Production method for retinal tissue” (SUMITOMO DAINIPPON PHARMA CO., LTD., priority 2014, dated 2022).

Legend:
Type in all cases: cell-based
[1] = tested on: human iPS cells (201B7 strain); experiment: Immunostaining of aggregate frozen sections for retinal tissue markers Chx10 and Rx; design: proportion of Chx10-positive cells: dose or concentration left out as unconfirmed; details: Example 3, Essential 8, SAG day 0, day 18
Text: Cell aggregates on day 18 after the start of suspension culturing were fixed with 4% para-formaldehyde to produce frozen sections. These frozen sections were immunostained for Chx10 (anti-Chx10 antibody, Exalpha, sheep), which is one of the retinal tissue markers, or Rx (anti-Rx antibody, manufactured by TAKARA, guinea pig), which is one of the retinal tissue markers.
Cell aggregates on day 18 after the start of suspension culturing were fixed with 4% para-formaldehyde to produce frozen sections. These frozen sections were immunostained for Chx10 (anti-Chx10 antibody, Exalpha, sheep), which is one of the retinal tissue markers.

[2] = tested on: human iPS cells (DSPC-3 strain); experiment: as above; details: Example 8; SAG 300 nM day 0; BMP4 1.5 nM day 3; day 22
Text: Cell aggregates on day 22 after the start of suspension culturing were fixed with 4% para-formaldehyde to produce frozen sections. These frozen sections were immunostained for Chx10 (anti-Chx10 antibody, Exalpha, sheep), which is one of the retinal tissue markers, or Rx (anti-Rx antibody, manufactured by Takara, guinea pig), which is one of the retinal tissue markers.

[3] = tested on: human iPS cells (201B7 strain); experiment: Bright field observation of cell aggregates in suspension culture (neuroepithelium formation); details: day 18
Description: The thus-prepared subconfluent human iPS cells were treated with the cell dispersion solution by using TrypLE Select (manufactured by Life Technologies), further dispersed into single cells by pipetting operation, and the above human iPS cells dispersed into single cells were suspended in 100 μl of a serum-free medium at 1.2×10^4 cells per well of a non-cell-adhesive 96-well culture plate (PrimeSurface 96V-bottom plate, SUMITOMO BAKELITE). Thereafter, the cells were subjected to suspension culturing at 37° C., 5% CO2. As the serum-free medium (gfCDM+KSR) therefor, a serum-free medium which is a 1:1 mixture of F-12 medium and IMDM medium supplemented with 10% KSR, 450 μM 1-monothioglycerol, 1× Chemically defined lipid concentrate was used. At the time of the start of suspension culturing (day 0 after the start of suspension culturing, start of step 2), a serum-free medium supplemented with SAG (final concentration […]) as a Shh signal transduction pathway activating substance and Y27632 (20 μM) was used (FIG. 5A-D). By day 2 after the start of suspension culturing, cell aggregates were formed. On day 3 after the start of suspension culturing, a serum-free medium (50 μl) free of Y27632 and SAG was added. […] The thus-prepared cell aggregates were subjected to bright field observation under an inverted microscope (BIOREVO manufactured by KEYENCE) on day 18 after the start of suspension culturing.
The thus-prepared subconfluent human iPS cells were treated with the cell dispersion solution by using TrypLE Select (manufactured by Life Technologies), further dispersed into single cells by pipetting operation, and the above human iPS cells dispersed into single cells were suspended in 100 μl of a serum-free medium at 1.0×10^4 cells per well of a non-cell-adhesive 96-well culture plate (SUMILON SPHEROID V-bottom plate PrimeSurface 96V-bottom plate, SUMITOMO BAKELITE). Thereafter, the cells were subjected to suspension culturing at 37° C., 5% CO2. As the serum-free medium (gfCDM+KSR) therefor, a serum-free medium which is a 1:1 mixture of F-12 medium and IMDM medium supplemented with 10% KSR, 450 μM 1-monothioglycerol, 1× Chemically defined lipid concentrate was used. At the time of the start of suspension culturing (day 0 after the start of suspension culturing, start of step 2), the above serum-free medium supplemented with Y27632 (final concentration 20 μM) and further supplemented with SAG (final concentration 30 nM), Purmorphamine (manufactured by Wako, final concentration 0.2 μM), or human recombinant Shh (manufactured by R&D, Recombinant N-Terminus, final concentration 50 ng/ml) as a Shh signal transduction pathway activating substance was used (FIG. 8). On day 2 after the start of suspension culturing, a cell aggregates were formed. […]

[4] = tested on: human iPS cells (1231A3 strain); experiment: Immunostaining of aggregate cryosections for retinal tissue markers Chx10 and Rx
Text: The above cell aggregates on day 19 after the start of suspension culturing were each fixed with 4% para-formaldehyde to give cryosections. These cryosections were immunostained for Chx10 (anti-Chx10 antibody, manufactured by Exalpha, sheep), which is one of the retinal tissue markers, or Rx (anti-Rx antibody, manufactured by TAKARA, guinea pig), which is one of the retinal tissue markers. In judgment of whether the above marker is positive in the immunostaining analysis, a fluorescence intensity which is not less than 2 times higher than that of the background was taken as positive.
The thus-prepared cell aggregates on day 18 after the start of suspension culturing, which were produced by adding SAG in step 2 from feeder-free iPS cells as a starting material, were fixed with 4% para-formaldehyde to produce frozen sections. These frozen sections were immunostained for Chx10 (anti-Chx10 antibody, Exalpha, sheep), which is one of the retinal tissue markers, or Rx (anti-Rx antibody, manufactured by TAKARA, guinea pig), which is one of the retinal tissue markers. These immunostained sections were observed under an inverted fluorescence microscope.
The cell aggregates on day 18 after the start of suspension culturing were fixed with 4% para-formaldehyde to produce frozen sections. These frozen sections were immunostained for Chx10 (anti-Chx10 antibody, Exalpha, sheep), which is one of the retinal tissue markers.

[5] = Example 1, StemFit, SAG 300 nM day 0, BMP4 1.5 nM day 6, day 19
[6] = Example 1, StemFit, SAG 300 nM day 0, no BMP4, day 19
[7] = Example 4 Condition 1, SAG 300 nM day 0, BMP4 1.5 nM day 3, day 18
[8] = Example 4 Condition 2, SAG 300 nM day 0, BMP4 1.5 nM day 6, day 18
[9] = Example 5 Condition 1, SAG 600 nM day 0, BMP4 1.5 nM day 3, day 18
[10] = Example 5 Condition 2, SAG 600 nM day 0, BMP4 1.5 nM day 6, day 18

CNC1CCC(N(Cc2cccc(-c3ccncc3)c2)C(=O)c2sc3ccccc3c2Cl)CC1 (centres unmarked) [SAG]
proportion of Rx-positive cells in the total cells ([1]; BMP4 1.5 nM day 6): not less than 40% | proportion of Chx10-positive cells ([1]; no BMP4): not more than 3% | proportion of Rx-positive cells in the total cells ([1]; no BMP4): not more than 3% | proportion of Chx10-positive cells in the total cells [2]: about 10% | proportion of Rx-positive cells in the total cells [2]: about 10% | neuroepithelium formation (bright field) ([3]; Example 3, Essential 8, SAG 300 μM day 0, with or without BMP4 1.5 nM day 6): neuroepithelium was formed | neuroepithelium formation (bright field) ([3]; Example 6, StemFit, SAG 30 nM, Purmorphamine 0.2 μM or human recombinant Shh 50 ng/ml day 0, BMP4 1.5 nM day 3): neuroepithelium was formed | proportion of Chx10-positive cells [4, 5]: not less than 60% | proportion of Rx-positive cells in the total cells [4, 5]: not less than 60% | proportion of Chx10-positive cells [4, 6]: less than 3% | proportion of Rx-positive cells in the total cells [4, 6]: less than 3% | proportion of Chx10-positive cells [4, 7]: about 40% | proportion of Rx-positive cells in the total cells [4, 7]: about 40% | proportion of Chx10-positive cells [4, 8]: about 40% | proportion of Rx-positive cells in the total cells [4, 8]: about 40% | proportion of Chx10-positive cells [4, 9]: about 40% | proportion of Rx-positive cells in the total cells [4, 9]: about 40% | proportion of Chx10-positive cells [4, 10]: about 40% | proportion of Rx-positive cells in the total cells [4, 10]: about 40% | presence of Chx10-positive cells in the cell aggregate ([4]; Example 7, SAG 30 nM or Shh 300 ng/ml day 0, BMP4 1.5 nM day 3, day 18): contained Chx10-positive cells
